From US20260225997A1, “IONIZABLE AMINE LIPIDS” (Intellia Therapeutics, Inc., priority 2018, published 2026)
Values belong to the compound of their own block, whether it stands above or below them.

Tests used:
[1] = pKa measurement of unformulated amine lipid (fluorescence, method of Jayaraman et al.); format: physicochemical; conditions: 100 μM in 0.1 M phosphate buffer pH 4.5-9.0
Experimental: The pKa of each amine lipid was determined according to the method in Jayaraman, et al. (Angewandte Chemie, 2012) with the following adaptations. […] Lipid was diluted to 100 μM in 0.1 M phosphate buffer (Boston Bioproducts) where the pH ranged from 4.5-9.0. Fluorescence intensity was measured using excitation and emission wavelengths of 321 nm and 448 nm.

TTR = TTR editing in mouse liver by NGS after i.v. LNP delivery of Cas9 mRNA and sgRNA; format: in vivo; conditions: for TTR Editing (%) / % Editing (TTR, liver) / Editing Mean % Indel / Editing %: CD-1 female mice; for % Editing (TTR, liver): Example 55: 0.1 mpk i.v.; for Editing %: Example 56: 0.1 mpk i.v., G282
In short: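 Cas9 mRNA and chemically modified sgRNA were co-formulated in LNPs made of an ionizable amine lipid, DSPC, cholesterol and PEG-2k-DMG at a 6.0 N:P ratio. CD-1 female mice aged 6-10 weeks received tail-vein injections of 0.2 mL. Liver genomic DNA was then amplified around the target site and sequenced on an Illumina MiSeq, with editing calculated as indel-containing reads over total reads.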

[2] = LNP average particle size and polydispersity by dynamic light scattering (Malvern Zetasizer); format: physicochemical
In short: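 LNPs diluted in PBS to a count rate of about 200–400 kcps and measured by dynamic light scattering. Size given as intensity-weighted Z-average diameter, with number-average diameter and polydispersity index also reported.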

[3] = Example 53: 0.1 mpk i.v., 6 days post-dose, G282 1:1
[4] = Example 53: 0.3 mpk i.v., 6 days post-dose, G282 1:1
[5] = Example 58: 0.1 mpk i.v., 6 days post-dose, G282 1:1
[6] = Example 59: 0.1 mpk i.v., 7 days post-dose, G282 1:1
[7] = Example 60: 0.1 mpk i.v., 6 days post-dose, G502 1:2
[8] = Example 62: 0.03 mpk i.v., 7 days post-dose, G282 1:2
[9] = Example 62: 0.1 mpk i.v., 7 days post-dose, G282 1:2
[10] = Example 63: 0.03 mpk i.v., 7 days post-dose, G282 1:1
[11] = Example 63: 0.1 mpk i.v., 7 days post-dose, G282 1:1
[12] = Table 3, Example 52: LNP, Cas9 mRNA + sgRNA (G650) 1:1 w/w, N:P 6.0
[13] = Table 5, Example 53: LNP with gRNA G282 (TTR)
[14] = Table 5, Example 53: LNP with gRNA G650 (B2M)
[15] = Table 10, Example 55: LNP, G282 1:1
[16] = Table 14, Example 58: LNP, G282 1:1
[17] = Table 16, Example 59: LNP, G282 1:1
[18] = Table 18, Example 60: LNP, G502 1:2
[19] = Table 22, Example 62: LNP, G282 1:2
[20] = Table 24, Example 63: LNP, G282 1:1
[21] = Example 61: 0.1 mpk i.v., 7 days post-dose, G282 1:1
[22] = Table 12, Example 56: LNP, G282
[23] = Table 20, Example 61: LNP, G282 1:1
[24] = Table 8, Example 54: LNP, G650 (B2M) 1:1
[25] = Table 26, Example 64: LNP, G282 1:1

SMILES: CCCCCCCCCOC(=O)CCCCCCCN(CCO)CCCCCCCC(OCCCCCCCC)OCCCCCCCC [Compound 1, nonyl 8-((8,8-bis(octyloxy)octyl)(2-hydroxyethyl)amino octanoate]
pKa [1]: 6.3 | TTR Editing (%) (TTR; [3]): 55.4% | TTR Editing (%) (TTR; [4]): 59.3% | TTR editing in the liver compared with Compound 19 formulations (TTR; Example 53 text: 0.1 and 0.3 mpk): higher TTR editing in the liver than Compound 19 formulations at each dose | editing of TTR (TTR; Example 53 text: both the 0.1 mpk and 0.3 mpk doses): 55-60% | % Editing (TTR, liver) (TTR; 7 days post-dose, G282 1:1): 43% | Editing Mean % Indel (TTR; [5]): 29.5% | Editing Mean % Indel (TTR; [6]): 41.6% | Editing Mean % Indel (TTR; [7]): 46.3% | Editing Mean % Indel (TTR; [8]): 8.9% | Editing Mean % Indel (TTR; [9]): 34.2% | Editing Mean % Indel (TTR; [10]): 10.86% | Editing Mean % Indel (TTR; [11]): 41.10% | Num Ave Size (nm) [2, 12]: 57.04 nm | PDI [2, 12]: 0.105 | Z-Ave Size (nm) [2, 12]: 79.49 nm | Num Ave Size (nm) [2, 13]: 61.19 nm | PDI [2, 13]: 0.008 | Z-Ave Size (nm) [2, 13]: 75.77 nm | Num Ave Size (nm) [2, 14]: 65.11 nm | PDI [2, 14]: 0.028 | Z-Ave Size (nm) [2, 14]: 80.96 nm | Num Ave Size (nm) [2, 15]: 55.38 nm | PDI [2, 15]: 0.05 | Z-Ave Size (nm) [2, 15]: 69.94 nm | Num Ave Size (nm) [2, 16]: 55.38 nm | PDI [2, 16]: 0.05 | Z-Ave Size (nm) [2, 16]: 69.94 nm | Num Ave Size (nm) [2, 17]: 57.78 nm | PDI [2, 17]: 0.04 | Z-Ave Size (nm) [2, 17]: 72.21 nm | Num Ave Size (nm) [2, 18]: 58.01 nm | PDI [2, 18]: 0.037 | Z-Ave Size (nm) [2, 18]: 74.5 nm | Num Ave Size (nm) [2, 19]: 58.01 nm | PDI [2, 19]: 0.037 | Z-Ave Size (nm) [2, 19]: 74.5 nm | Num Ave Size (nm) [2, 20]: 52 nm | PDI [2, 20]: 0.06 | Z-Ave Size (nm) [2, 20]: 70 nm

SMILES: CCCCCCCCOC(CCCCCCCN(CCO)CCCCCCCC(=O)OC(CC)CCCCCCCC)OCCCCCCCC (stereo not shown) [Compound 17, undecan-3-yl 8-((8,8-bis(octyloxy)octyl)(2-hydroxyethyl)amino)octanoate]
pKa [1]: 6.21 | Editing Mean % Indel (TTR; [5]): 40.8% | Editing Mean % Indel (TTR; [8]): 4.0% | Editing Mean % Indel (TTR; [9]): 45.9% | Num Ave Size (nm) [2, 16]: 54.25 nm | PDI [2, 16]: 0.056 | Z-Ave Size (nm) [2, 16]: 68.72 nm | Num Ave Size (nm) [2, 19]: 44.93 nm | PDI [2, 19]: 0.072 | Z-Ave Size (nm) [2, 19]: 62.89 nm

SMILES: CCCCC/C=C\C/C=C\CCCCCCCC(=O)OCC(COC(=O)CCC(OCCCCCCCC)OCCCCCCCC)COC(=O)OCCCN(CC)CC (stereo not shown) [Compound 19, 3-((4,4-bis(octyloxy)butanoyl)oxy)-2-(((((3-(diethylamino)propoxy))-carbonyl)oxy)methyl)propyl (9Z,12Z)-octadeca-9,12-dienoate, reference compound]
pKa [1]: 6.4 | TTR Editing (%) (TTR; [3]): 13.8% | TTR Editing (%) (TTR; [4]): 45.9% | % Editing (TTR, liver) (TTR; 7 days post-dose, G282 1:1): 29% | Editing % (TTR; 7 days post-dose): 15% | Editing Mean % Indel (TTR; [6]): 29.3% | Editing Mean % Indel (TTR; [7]): 41.4% | Editing Mean % Indel (TTR; [21]): 35.9% | Editing Mean % Indel (TTR; [8]): 7.0% | Editing Mean % Indel (TTR; [9]): 27.1% | Editing Mean % Indel (TTR; [10]): 30.18% | Editing Mean % Indel (TTR; [11]): 56.02% | Editing Mean % Indel (TTR; Example 64: Dose 0.03 mpk (table) i.v., 7 days post-dose, G282 1:1): 5.2% | Num Ave Size (nm) [2, 12]: 64.97 nm | PDI [2, 12]: 0.056 | Z-Ave Size (nm) [2, 12]: 82.71 nm | Num Ave Size (nm) [2, 13]: 62.86 nm | PDI [2, 13]: 0.015 | Z-Ave Size (nm) [2, 13]: 79.83 nm | Num Ave Size (nm) [2, 14]: 64.97 nm | PDI [2, 14]: 0.056 | Z-Ave Size (nm) [2, 14]: 82.71 nm | Num Ave Size (nm) [2, 24]: 64.97 nm | PDI [2, 24]: 0.056 | Z-Ave Size (nm) [2, 24]: 82.71 nm | Num Ave Size (nm) [2, 15]: 64.95 nm | PDI [2, 15]: 0.025 | Z-Ave Size (nm) [2, 15]: 81.76 nm | Num Ave Size (nm) [2, 22]: 63.19 nm | PDI [2, 22]: 0.047 | Z-Ave Size (nm) [2, 22]: 79.18 nm | Num Ave Size (nm) [2, 16]: 71.1 nm | PDI [2, 16]: 0.007 | Z-Ave Size (nm) [2, 16]: 84.99 nm | Num Ave Size (nm) [2, 17]: 71.49 nm | PDI [2, 17]: 0.02 | Z-Ave Size (nm) [2, 17]: 86.84 nm | Num Ave Size (nm) [2, 18]: 73.15 nm | PDI [2, 18]: 0.033 | Z-Ave Size (nm) [2, 18]: 88.6 nm | Num Ave Size (nm) [2, 23]: 71.49 nm | PDI [2, 23]: 0.02 | Z-Ave Size (nm) [2, 23]: 86.84 nm | Num Ave Size (nm) [2, 19]: 73.15 nm | PDI [2, 19]: 0.033 | Z-Ave Size (nm) [2, 19]: 88.6 nm | Num Ave Size (nm) [2, 20]: 66 nm | PDI [2, 20]: 0.03 | Z-Ave Size (nm) [2, 20]: 82 nm | Num Ave Size (nm) [2, 25]: 65 nm | PDI [2, 25]: 0.03 | Z-Ave Size (nm) [2, 25]: 83 nm

More lines, main results first:

pKa [1]: 6.6 | Num Ave Size (nm) [2, 22]: 69.77 nm | PDI [2, 22]: 0.112 | Z-Ave Size (nm) [2, 22]: 106.6 nm | Num Ave Size (nm) [2, 17]: 53.06 nm | PDI [2, 17]: 0.093 | Z-Ave Size (nm) [2, 17]: 75.79 nm | Num Ave Size (nm) [2, 23]: 52.25 nm | PDI [2, 23]: 0.083 | Z-Ave Size (nm) [2, 23]: 74.67 nm
SMILES: CCCCCCCCCOC(=O)CCCCCCCN(CCO)CCCCCCCC(=O)OC(CCCCCCCC)CCCCCCCC [Compound 18, heptadecan-9-yl 8-((2-hydroxyethyl)(8-(nonyloxy)-8-oxooctyl)amino)octanoate, reference compound]
Editing % (TTR; 7 days post-dose): 33% | Editing Mean % Indel (TTR; [6]): 41.6% | Editing Mean % Indel (TTR; [21]): 26.8%

pKa [1]: 6.41 | Num Ave Size (nm) [2, 20]: 42 nm | PDI [2, 20]: 0.30 | Z-Ave Size (nm) [2, 20]: 78 nm
SMILES: CCCCCCCCOC(CCCCCCCN(CCO)CCCCCCCC(=O)OC(CC)CCCCCC)OCCCCCCCC (stereo not shown) [Compound 28, nonan-3-yl 8-((8,8-bis(octyloxy)octyl)(2-hydroxyethyl)amino)octanoate]
Editing Mean % Indel (TTR; [10]): 20.74% | Editing Mean % Indel (TTR; [11]): 42.36%
